Assay results from patent US9637486B2, “Btk inhibitors” (MERCK SHARP & DOHME CORP., priority 2013, dated 2017).

Target: BTK enzyme (hBTK, full-length recombinant) (Homo sapiens (Human), UniProt Q06187)
Experiment: Btk enzyme activity assay, LANCE TR-FRET
Type: biochemical
Conditions: 50 pM hBTK, 2 μM biotin-A5-peptide, 25 μM ATP; 60 minute compound & enzyme incubation; read-out: BTK binding IC50
Method: Also BTK enzymatic activity was determined with the LANCE (Lanthanide Chelate Excite) TR-FRET (Time-resolved fluorescence resonance energy transfer) assay. […] Following a 60 minute compound & enzyme incubation, each reaction was initiated by the addition of 2.5 μL 1× kinase buffer containing 8 μM biotinylated “A5” peptide (Biotin-EQEDEPEGDYFEWLE-NH2), and 100 μM ATP. The final reaction in each well of 10 μL consists of […], 2 μM biotin-A5-peptide, and 25 μM ATP. Phosphorylation reactions were allowed to proceed for 120 minutes. Reactions were immediately quenched by the addition of 20 uL of 1× quench buffer (15 mM EDTA, 25 mM Hepes 7.3, and 0.1% Triton X-100) containing detection reagents (0.626 nM of LANCE-Eu-W1024-anti-phosphoTyrosine antibody, PerkinElmer and 86.8 nM of Streptavidin-conjugated Dylight 650, Dyomics/ThermoFisher Scientific). After 60 minutes incubation with detection reagents, reaction plates were read on a PerkinElmer EnVision plate reader using standard TR-FRET protocol. Briefly, excitation of donor molecules (Eu-chelate:anti-phospho-antibody) with a laser light source at 337 nm produces energy that can be transferred to Dylight-650 acceptor molecules if this donor:acceptor pair is within close proximity. Fluorescence intensity at both 665 nm (acceptor) and 615 nm (donor) are measured and a TR-FRET ratio calculated for each well (acceptor intensity/donor intensity). […] (Log10) compound concentrations. Btk Enzyme Activity Assay Method BTK enzymatic activity was determined with the LANCE (Lanthanide Chelate Excite) TR-FRET (Time-resolved fluorescence resonance energy transfer) assay. […] Following a 60 minute compound & enzyme incubation, each reaction was initiated by the addition of 2.5 μL 1× kinase buffer containing 8 μM biotinylated “A5” peptide (Biotin-EQEDEPEGDYFEWLE-NH2), and 100 μM ATP. The final reaction in each well of 10 μL consists of 50 pM hBTK, 2 μM biotin-A5-peptide, and 25 μM ATP. Phosphorylation reactions were allowed to proceed for 120 minutes. Reactions were immediately quenched by the addition of 20 uL of 1× quench buffer (15 mM EDTA, 25 mM Hepes 7.3, and 0.1% Triton X-100) containing detection reagents (0.626 nM of LANCE-Eu-W1024-anti-phosphoTyrosine antibody, PerkinElmer and 86.8 nM of Streptavidin-conjugated Dylight 650, Dyomics/ThermoFisher Scientific). After 60 minutes incubation with detection reagents, reaction plates were read on a PerkinElmer EnVision plate reader using standard TR-FRET protocol. Briefly, excitation of donor molecules (Eu-chelate:anti-phospho-antibody) with a laser light source at 337 nm produces energy that can be transferred to Dylight-650 acceptor molecules if this donor:acceptor pair is within close proximity. Fluorescence intensity at both 665 nm (acceptor) and 615 nm (donor) are measured and a TR-FRET ratio calculated for each well (acceptor intensity/donor intensity). […] (Log10) compound concentrations.

Chain of BTK enzyme (hBTK, full-length recombinant) (Q06187 whole entry): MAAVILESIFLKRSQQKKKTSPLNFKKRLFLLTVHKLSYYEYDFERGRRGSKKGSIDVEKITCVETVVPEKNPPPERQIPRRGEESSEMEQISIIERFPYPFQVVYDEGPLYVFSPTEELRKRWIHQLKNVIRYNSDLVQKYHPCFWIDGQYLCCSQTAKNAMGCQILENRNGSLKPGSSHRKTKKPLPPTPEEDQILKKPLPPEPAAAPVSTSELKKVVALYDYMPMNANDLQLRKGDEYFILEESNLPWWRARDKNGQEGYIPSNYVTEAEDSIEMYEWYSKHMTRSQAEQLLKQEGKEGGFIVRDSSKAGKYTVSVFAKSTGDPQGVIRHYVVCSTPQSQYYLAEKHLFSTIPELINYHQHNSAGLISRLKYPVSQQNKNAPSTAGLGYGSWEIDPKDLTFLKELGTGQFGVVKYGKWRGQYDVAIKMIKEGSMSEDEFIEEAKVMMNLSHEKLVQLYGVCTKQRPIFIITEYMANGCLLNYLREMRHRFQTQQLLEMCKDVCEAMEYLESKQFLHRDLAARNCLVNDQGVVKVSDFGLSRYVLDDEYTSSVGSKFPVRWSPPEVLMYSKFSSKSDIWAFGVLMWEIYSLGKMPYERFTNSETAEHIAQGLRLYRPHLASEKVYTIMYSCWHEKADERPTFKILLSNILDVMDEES

| IC50 [nM] | Compound |
| --- | --- |
| 9.3 | Nc1nccc2c([C@@H]3CCCN(C(=O)C4CC4(F)F)C3)nn(-c3ccc(Oc4ccccc4)cc3)c12 (stereo partly drawn) [Example 4, 3-{(3R)-1-[(2,2-difluorocyclopropyl)carbo-nyl]piperidin-3-yl}-1-(4-phenoxyphenyl)-1H-pyrazolo[3,4-c]pyridin-7-amine] |
| 3.8 | C[C@H]1CC[C@@H](c2nn(-c3ccc(Oc4cccc(F)c4)cc3)c3c(N)nccc23)CN1C(=O)C1(C)COC1 [Example 28, 1-[4-(3-fluorophenoxy)phenyl]-3-{(3R,6S)-6-methyl-1-[(3-methyloxetan-3-yl)carbonyl]piperidin-3-yl}-1H-pyrazolo[3,4-c]pyridin-7-amine] |
| 1.7 | CC1(C(=O)N2CCC[C@@H](c3nn(-c4ccc(Oc5ccccc5)cc4)c4c(N)nccc34)C2)COC1 [Example 1, (R)-(3-(7-amino-1-(4-phenoxyphenyl)-1H-pyrazolo[3,4-c]pyridin-3-yl)piperidin-1-yl)(3-methyloxetan-3-yl)methanone] |
| 56.9 | CC1(C(=O)N2CCC[C@@H](c3nn(-c4ccc(Oc5ccc(F)cc5)cc4)c4c(N)nccc34)C2)COC1 [Example 26, (R)-(3-(7-amino-1-(4-(4-fluorophenoxy)phenyl)-1H-pyrazolo[3,4-c]pyridin-3-yl)piperidin-1-yl)(3-methyloxetan-3-yl)methanone] |
| 5.8 | C[C@@H](O)C(=O)N1C[C@H](c2nn(-c3ccc(Oc4cccc(F)c4)cc3)c3c(N)nccc23)CC[C@@H]1C [Example 29, (2R)-1-[(2S,5R)-5-{7-amino-1-[4-(3-fluorophenoxy)phenyl]-1H-pyrazolo[3,4-c]pyridin-3-yl}-2-methylpiperidin-1-yl]-1-oxopropan-2-ol] |
